Columns and labels:
arthropod = conditions: Table 1, training set of 11 repellents; protection (repelling) time; cited from earlier work
arthropods [1] = assay: Arthropod repellent test of short-listed compounds found by pharmacophore database search; type: in vivo; conditions: for Experimental PT: Table 3, compounds identified by database search; for repellent activity against arthropods (in words): short list of 138 compounds from in-house CIS screened
Text: As provided in Example 4, the pharmacophore model of the present invention was used to search three-dimensional multiconformer databases, including an in-house Chemical Information System (Chemical Information System, Division of Experimental Therapeutics, Walter Reed Army Institute of Research, Silver Spring, Md.), National Cancer Institute, IBS and Maybridge databases, to screen for potential new repellent agents. The Chemical Information System database has over 240,000 compounds and was transformed into a multiconformer database in CATALYST® using the catDB® utility program as implemented in the software. The catDB® format allows a molecule to be represented by a limited set of conformations thereby permitting conformational flexibility to be included during the search of the database.
Specifically, the three-dimensional pharmacophore of the present invention was used as a template for search various three-dimensional multi-conformer databases. Three-dimensional multi-conformer databases of molecules comprise all possible conformations of the three-dimensional structure of each molecule in the database within an energy range of 0 to 25 kcal/mol. The three-dimensional structures in the databases were mapped to or compared with the three-dimensional pharmacophore of the present invention to identify compounds having the same or similar three-dimensional conformations.
The compounds were short listed on the basis of their ADME (Absorption, Distribution, Metabolism, and Excretion) properties and were evaluated by rapid in silico screening using Cerus^2ADME methodology. See Cerius^2ADME. Accelrys Inc. (2003) San Diego, Calif. The short listed compounds were then tested for arthropod repellent property using methods known in the art. See e.g. Debboun, et al. (1999) J. Am. Mosq. Cont. Assoc. 15(3):342-347; and Gupta, R K and Rutledge, L C (1991) J. Am. Mosq. Cont. Assoc. 7:490-493, which are herein incorporated by reference.
Three-dimensional multiconformer databases, including an in-house Chemical Information System (Chemical Information System, Division of Experimental Therapeutics, Walter Reed Army Institute of Research, Silver Spring, Md.), National Cancer Institute, IBS and Maybridge databases, were screened for potential new repellent agents using the pharmacophore model of the present invention. The Chemical Information System database of the Division of Experimental Therapeutics, WRAIR is a database of more than 245,000 proprietary compounds. By using the catDB utility program of the CATALYST®, the database was transformed into a multi-conformer based 3D database. The database searching protocol in the CATALYST® involves a rapid 3D screening process followed by a rigorous atom-by-atom mapping in which a fairly comprehensive set of features including the chemical features of the pharmacophore are considered. In addition to the traditional pharmacophore based searching, 3D shape similarity and partial match searching may also be performed. See Kurogi, Y and Gunner, O F (2001) Current Medicinal Chemistry 8:1035-1055, which is herein incorporated by reference.

mosquitoes = conditions: cited from earlier work
white rats = conditions: cited from earlier work
arthropods [2] = conditions: under warm, humid conditions; cited from earlier work

Structure (SMILES)	Experimental PT (arthropod) [h]	Experimental PT (arthropods [1]) [h]	also measured
CCOc1ccccc1C(=O)N(CC)CC	0.5	–	–
CCCN(CCC)C(=O)COCc1ccccc1	0.5	–	–
CCCCN1C(O)=CC(C)c2ccccc21 (centres unmarked)	2.0	–	–
CCCN(CCC)C(=O)c1ccccc1OCC	0.3	–	–
CCCCC(CC)(CO)CO	1.7	–	–
CCCCON1CN(C)N(OCCCC)C1=O	0.6	–	–
CCN(CC)C(=O)c1ccccc1Cl	1.2	–	–
ClOc1c(Cl)c(Cl)c(Cl)c(Cl)c1Cl	0.2	–	–
O=C(OCCCO)c1ccccc1	7.5	–	–
CC(C)COC(=O)CC(O)C(=O)OCC(C)C (centres unmarked)	2.5	–	–
CC(C)(Oc1ccccc1Cl)C(N)=O [2-(2-chloro-phenoxy)-2-methyl-propionamide]	–	2.6	repellent activity against arthropods (in words) (arthropods [1]): found to exhibit repellent activity against arthropods
C=CCSc1nccnc1C [2-allylsulfanyl-3-methyl-pyrazine]	–	1.6	repellent activity against arthropods (in words) (arthropods [1]): found to exhibit repellent activity against arthropods
COc1ccc(OC)c(C(=O)CBr)c1 [2-bromo-1-(2,5-dimethoxy-phenyl)-ethanone]	–	2.6	repellent activity against arthropods (in words) (arthropods [1]): found to exhibit repellent activity against arthropods
CCN(CC)C(=O)CC1CCCCC1 [2-cyclohexyl-N,N-diethylacetamide]	–	0.24	–
Cc1cc(C)c(C)c(C(=O)C(C)C)c1C [2-methyl-1-(2,3,5,6-tetramethyl-phenyl)-propan-1-one]	–	9.3	repellent activity against arthropods (in words) (arthropods [1]): found to exhibit repellent activity against arthropods
CCCCCCCCC(O)C1CCC(CCCCC(=O)O)O1 (centres unmarked) [5-[5-(1-hydroxy-nonyl)-tetrahydro-furan-2-yl]-pentanoic acid]	–	–	landing and feeding deterrence (mosquitoes): acts as a landing and feeding deterrent for mosquitoes
CCN(CC)C(=O)c1cccc(C)c1 [DEET, N,N-diethyl-m-toluamide]	1.0	–	toxicity on regular skin application (white rats): gonadotoxic and embryotoxic; duration of application (arthropods [2]): 1 to 2 h
CCN(CC)C(=O)Cc1cccc(Br)c1 [N,N-diethyl-2-(3-bromo-phenyl)-acetamide]	–	0.63	–
CCN(CC)C(=O)Cc1cccc(C(F)(F)F)c1 [N,N-diethyl-2-(3-trifluoromethyl-phenyl)-acetamide]	–	0.14	–
CCN(CC)C(=O)c1cccc(C(F)(F)F)c1 [N,N-diethyl-3-trifluoromethyl-benzamide]	–	0.5	–

Reference: patent US7897162B2, “Arthropod repellent pharmacophore models, compounds identified as fitting the pharmacophore models, and methods of making and using thereof” (The United States of America as represented by the …, priority 2003, dated 2011)
